Measurements published in ChEMBL document CHEMBL3734649, “H2O-mediated isatin spiro-epoxide ring opening with NaCN: Synthesis of novel 3-tetrazolylmethyl-3-hydroxy-oxindole hybrids and their anticancer evaluation” (Eur J Med Chem, 2015).

Assays:
[1] = Anticancer activity against human BT549 cells after 48 hrs by MTT assay; assay type: functional, cell-based; conditions: BT-549, 48 h
MDA-MB-231 = assay: Anticancer activity against human MDA-MB-231 cells after 48 hrs by MTT assay; assay type: functional, cell-based; conditions: MDA-MB-231, 48 h
[2] = Anticancer activity against human PC3 cells after 48 hrs by MTT assay; assay type: functional, cell-based; conditions: PC-3, 48 h
[3] = Anticancer activity against human DU145 cells after 48 hrs by MTT assay; assay type: functional, cell-based; conditions: DU-145, 48 h
[4] = Anticancer activity against human PA1 cells after 48 hrs by MTT assay; assay type: functional, cell-based; conditions: PA-1, 48 h
[5] = Cytotoxicity against human RWPE1 cells after 48 hrs by MTT assay; assay type: cell-based; conditions: RWPE-1, 48 h
[6] = Selectivity index, ratio of IC50 for human RWPE1 cells to IC50 for human DU145 cells; assay type: functional

| SMILES | IC50 [1] [µM] | IC50 (MDA-MB-231) [µM] | IC50 [2] [µM] | IC50 [3] [µM] | IC50 [4] [µM] | IC50 [5] [µM] | Ratio IC50 [6] |
| --- | --- | --- | --- | --- | --- | --- | --- |
| O=C1N(Cc2ccccc2)c2ccccc2C1(O)Cc1nnn[nH]1 (centres undefined) | > 100 | 74.1 | > 100 | > 100 | > 100 | – | – |
| CCN1C(=O)C(O)(Cc2nnn[nH]2)c2cc(Br)ccc21 (centres undefined) | > 100 | > 100 | > 100 | > 100 | > 100 | – | – |
| O=c1[nH]cc(F)c(=O)[nH]1 [FLUOROURACIL] | 19.8 | 45.4 | 68.3 | 39.2 | 7.59 | – | – |
| Cc1ccc2c(c1)C(O)(Cc1nnn[nH]1)C(=O)N2C (centres undefined) | > 100 | > 100 | > 100 | > 100 | > 100 | – | – |
| CCN1C(=O)C(O)(Cc2nnn[nH]2)c2ccccc21 (centres undefined) | > 100 | > 100 | > 100 | > 100 | > 100 | – | – |
| CN1C(=O)C(O)(Cc2nnn[nH]2)c2cc(Br)ccc21 (centres undefined) | > 100 | 67.3 | > 100 | > 100 | > 100 | – | – |
| CCN1C(=O)C(O)(Cc2nnn[nH]2)c2cc(C)ccc21 (centres undefined) | > 100 | > 100 | > 100 | 14.6 | > 100 | > 100 | – |
| O=C1N(Cc2ccc(Br)cc2)c2ccc(F)cc2C1(O)Cc1nnn[nH]1 (centres undefined) | > 100 | > 100 | > 100 | 14.4 | > 100 | > 100 | – |
| O=C1N(Cc2ccc(Br)cc2)c2ccccc2C1(O)Cc1nnn[nH]1 (centres undefined) | 73.4 | > 100 | 10.1 | 7.01 | 38.9 | 76 | 10 |
